Laboratory results: article PMC7031696 (Cell chemical biology, 2019)
Entries after “also recorded” stand apart in the source; their conditions may differ. Read-outs that look alike come from different tables or passages of the source.

Experiments:
[1] = tested on: Plasmodium falciparum 3D7-A10 parasites; assay: Stage specificity assay (8-h exposure of synchronized stages, IC50^8h); assay type: cell-based; settings: for Ratio lowest IC50 8hr/IC50 72hr: 3D7-A10; for Stage of peak activity (Figure 6): period when the parasite was most susceptible (lowest IC50^8h)
[2] = Solubility Assay (UV/vis spectroscopy, filter method); settings: 1 × PBS pH 7.4, 500 μM, UV/vis 280–360 nm minus 800 nm
[3] = tested on: asynchronous 3D7-A10 parasite cultures; assay: Standard 72-h exposure asexual blood stage susceptibility assay (IC50^72h); assay type: cell-based, Plasmodium falciparum; settings: read-out: Overall (72hr assay) Mean IC50 (IC50^72h); 72-h exposure, asynchronous 3D7-A10
[4] = tested on: synchronized Plasmodium falciparum parasites; assay: Microscopical study of cell morphology after 8-h exposures (Figure S4); assay type: cell-based; settings: 3× the IC50^8h of the most sensitive life stage, 8-h intervals
[5] = read-out: Early trophozoites Mean IC50 (IC50^8h), 8-h exposure 16–24 hr, 3D7-A10, survival at 60 h
[6] = read-out: Late trophozoites Mean IC50 (IC50^8h), 8-h exposure 24–32 hr, 3D7-A10, survival at 60 h
[7] = read-out: Schizonts Mean IC50 (IC50^8h), 8-h exposure 32–40 hr, 3D7-A10, survival at 60 h
[8] = read-out: Early rings Mean IC50 (IC50^8h), 8-h exposure 0–8 hr, 3D7-A10, survival at 60 h
[9] = read-out: Late rings Mean IC50 (IC50^8h), 8-h exposure 8–16 hr, 3D7-A10, survival at 60 h

Molecule | Ratio lowest IC50 8hr/IC50 72hr [1] | killing in stage specificity assay ([1]; 8-h exposures, survival curves) | Stage of peak activity (Figure 6) [1] | IC50 ([1]; read-out: Early rings IC50 (IC50^8h), 8-h exposure 0–8 hr, bound given in μM) | IC50 [1, 5] | IC50 ([1]; read-out: Late rings IC50 (IC50^8h), 8-h exposure 8–16 hr, bound given in μM) | IC50 [1, 6] | IC50 [1, 7] | Peak Activity (Table S1) ([1]; stage(s) with the lowest IC50^8h) | Ratio fil./std. (absorbance filtrate/standard) [2] | IC50 [3] | overall activity profile (stages on which active) ([1]; 8-h exposures) | IC50 [1, 8] | IC50 [1, 9] | digestive vacuole morphology [4] | most susceptible stage by cell morphology [4]
CC(C)(C)c1ccc2c(c1)CN(Cc1ccc(Cl)cc1)CO2 [MMV000442] | 4.7 | incomplete killing at all asexual blood stages | trophozoites | > 8 µM | 0.176 µM | > 8 µM | 0.197 µM | 0.503 µM | Trophs | 0.74 | 37.2 nM | – | – | – | – | –
CN(C)Cc1ccc(-c2cc3c(-c4ccc(CN(C)C)cc4)ccnc3[nH]2)cc1.O=C(O)C(F)(F)F [MMV022224] | 2.7 | – | rings and trophozoites | – | 0.542 µM | – | 0.752 µM | 2.49 µM | – | – | 199 nM | activity exclusively in rings and trophozoites but not in schizonts | 0.838 µM | 0.845 µM | without displaying swollen vacuoles | early and late trophozoite stages
CC(C)(C)NCc1cc(Nc2ccnc3cc(Cl)ccc23)c2c(c1O)CCCC2 [Naphtoquine, Naphthoquine, reference compound] | 1.3 | – | early rings; also recorded: ring stages | – | 0.0195 µM | – | 0.0292 µM | 0.0428 µM | – | – | 3.2 nM | – | 0.0042 µM | 0.0081 µM | – | –
Ferroquine [reference compound] | 1.4 | – | early rings; also recorded: ring stages | – | 0.0232 µM | – | 0.0368 µM | 0.0493 µM | – | – | 3.5 nM | – | 0.0049 µM | 0.0109 µM | – | –
